According to patent US8598355B2, “Amide compound” (Astellas Pharma Inc., priority 2008, dated 2013):

Tests used:
[1] = biological target: T1, EP4 receptor (Homo sapiens, UniProt P35408); test: EP4 receptor antagonistic activity by measurement of cAMP amount in human Jurkat cells (HTRF); assay type: cell-based; details: inhibition of cAMP, PGE2 100 nM
T1 construct: endogenous in cells; host or cells: Jurkat cells (human leukemia T lymphoma), no transfection described
Protocol: Evaluation Test of EP4 Receptor Antagonistic Activity by Measurement of cAMP Amount in Human Jurkat Cells
Jurkat cells (derived from human leukemia T lymphoma) were cultured with RPMI1640 (added with 10% fetal bovine serum) using a F75 flask. After proliferation to semiconfluency, indomethacin having a final concentration of 5 μM was added thereto, and the cells were further cultured for 18 hours. The cells were collected in a 15-mL Spitz tube, prepared to be 1×10^6 cells/mL using a Cell Banker (Mitsubishi Kagaku Iatron), and stored at −80° C. until used for assay. The cells were cultured in a CO2 incubator (37° C., 5% CO2).
A cAMP HiRange kit (Cisbio international) was used for cAMP measurement. A test compound, PGE2, and the cells were diluted and prepared with an assay buffer. The test compound was prepared to have a 3-fold concentration relative to the final concentration, PGE2 was prepared to be 300 nM, and the Jurkat cells frozen stored were prepared to be 1×10^6 cells/mL by thawing them at 37° C. To a 384-well U-bottom black microplate (Corning) were added the test compound, the cells, and PGE2 in this order in each in an amount of 5 μL, followed by shaking with a plate shaker and incubating at room temperature for 30 minutes. After incubation, 5 μL of a d2 reagent which had been diluted 0.6-fold with a lysis buffer was added to each well, followed by shaking with a plate shaker. Subsequently, 5 μL of an europium cryptate reagent which had been diluted 0.6-fold with a lysis buffer was added to each well, followed by shaking with a plate shaker and incubating at room temperature for 60 minutes under light shielding. After incubation, the fluorescence of the cryptate at 620 nm and the fluorescence of the d2 at 655 nm were measured using ARVO1420 (PerkinElmer). The cAMPs of 280, 70, 17.5, 4.38, 1.09, 0.27, and 0.068 nM were measured simultaneously for creating a standard curve. All measurements were performed in quadruplicate, and inhibitory rates were calculated by determining the cAMP amount of each test sample to the value obtained by subtracting the cAMP amount of the group without addition of PGE2 from the cAMP amount of the group with addition of PGE2 of 100 nM. IC50 values were calculated by a Logistic regression method.
In this connection, as the “assay buffer” and “lysis buffer” above, those as shown below were used:
Assay buffer; 1×HBSS (Hanks buffered salt solution, Nissui Pharmaceutical Co., Ltd.), 20 mM HEPES (pH 7.4, Nakarai Tesque), 0.5 mM IBMX (3-isobutyl-1-methylxanthine, WAKO), 0.02% CHAPS (Sigma), 0.1% Bovine serum albumin (Sigma), 2 μM Indomethacin (Sigma)
Lysis buffer; 50 mM NaPO4, 0.8 M KF, 1% Triton X-100, 0.2% Bovine serum albumin

[2] = biological target: rat EP4 receptor (Rattus norvegicus, UniProt P43114); test: Evaluation test of rat EP4 receptor affinity ([3H]PGE2 binding, membrane fraction of HEK293 cells expressing rat EP4); design: expressed in transfected cells; host or cells: HEK293 cells, transient transfection with Lipofectamine 2000; membrane fraction; details: [3H]PGE2 0.3 nM
Protocol: Evaluation Test of Rat EP4 Receptor Affinity
Cell Culturing and Transfection
Using a 10 cm collagen-coated dish (Asahi Glass), HEK293 cells were cultured in D-MEM culture medium, the culture medium was removed at a confluence (90 to 100% density state) and washed with a phosphate buffer saline (PBS), and then the cells were detached with N,N,N′,N′-tetrakis(carboxymethyl)ethylenediamine (EDTA). The number of the cells were counted and seeded on a 15 cm collagen-coated dish to a confluence of 70%. On the next day, to an Opti-MEM culture medium at 1.2 mL/dish was added Lipofectamine 2000 (Invitrogen) at 60 μL/dish, followed by leaving to stand at room temperature for 5 minutes. A plasmid in which rat EP4 (Sequence Number 1) had been inserted into a TA cloning site of pcDNA3.1-V5-His-topo was added thereto at 15 μg/dish. After leaving to stand at room temperature for 30 minutes, the resultant was added to the dish and cultured for 20 to 24 hours. The cell culture was carried out in a CO2 incubator (37° C., 5% CO2).
Preparation of Membrane Fraction
The culture medium was removed by suction, 10 mL of cooled PBS was added thereto per 15 cm dish, and the cells were scraped using a cell scraper (Sumitomo Bakelite). They were washed with cooled PBS (1,200 rpm, 4° C., 5 min), and then suspended in 6 mL of cooled 20 mM Tris-HCl (pH 7.4; Nakalai Tesque Inc., including 5 mM EDTA (Nakalai Tesque Inc.) per dish and the resultant was homogenized using a Polytron and the homogenate was centrifuged (26,000 rpm, 20 min, 4° C.). The obtained precipitate was resuspended in cooled 20 mM Tris-HCl and homogenized again using a Polytron, and the homogenate was centrifuged (26,000 rpm, 20 min, 4° C.). The obtained precipitate was resuspended in 50 mM HEPES (pH 7.5; Dojindo Laboratories) at 1 mL per dish, homogenized using a Polytron, and freeze-stored at −80° C. as a membrane fraction. At this time, a part thereof was used for the measurement of the protein concentration. Measurement of the protein concentration was carried out in duplicate using a Bio-Rad Protein assay kit (Bio-Rad Laboratories) in accordance with the appended standard Protocol.
[^3H]PGE2 50 μL (final concentration 0.3 nM; Perkin Elmer), 100 μL (20 μg/well) of a membrane fraction prepared from the rat EP4 expression cell and 50 μL of a test compound were mixed in a 96-well microplate (Sumitomo Bakelite), incubated at room temperature for 1 hour, filtered by suction on a UniFilter-96 GF/B (Perkin Elmer) using a FilterMate Harvester (Perkin Elmer), and then washed three times with 300 μL/well of a cooled assay buffer. Dilution of [^3H]PGE2 and the membrane fraction was carried out using an assay buffer (50 mM HEPES, 10 mM MgCl2), and dilution of the test compound and the unlabeled PGE2 was carried out using DMSO and an assay buffer. Further, in the case of the addition of a human serum albumin (HSA), dilution was carried out using an assay buffer containing 4% HSA (final concentration 1%; Sigma). The UniFilter-96 GF/B was treated preliminarily by washing twice with 200 μL/well of a cooled assay buffer. The UniFilter-96 GF/B after filtration was dried in a dryer overnight, 50 μL/well of MicroScint20 (Perkin Elmer) was added thereto, and then the radioactivity was measured using a TopCount (Perkin Elmer). For measurement of the non-specific binding, an unlabeled PGE2 (final concentration 1 μM; Cayman) was added. All of the measurements were carried out in duplicate, and the specific binding amount was determined by subtracting the non-specific binding amount from the total binding amount. The Ki value was calculated according to the general methods.
In the connection, Ex represents the below-described Example Compound number.

Sequence of rat EP4 receptor (P43114 whole entry): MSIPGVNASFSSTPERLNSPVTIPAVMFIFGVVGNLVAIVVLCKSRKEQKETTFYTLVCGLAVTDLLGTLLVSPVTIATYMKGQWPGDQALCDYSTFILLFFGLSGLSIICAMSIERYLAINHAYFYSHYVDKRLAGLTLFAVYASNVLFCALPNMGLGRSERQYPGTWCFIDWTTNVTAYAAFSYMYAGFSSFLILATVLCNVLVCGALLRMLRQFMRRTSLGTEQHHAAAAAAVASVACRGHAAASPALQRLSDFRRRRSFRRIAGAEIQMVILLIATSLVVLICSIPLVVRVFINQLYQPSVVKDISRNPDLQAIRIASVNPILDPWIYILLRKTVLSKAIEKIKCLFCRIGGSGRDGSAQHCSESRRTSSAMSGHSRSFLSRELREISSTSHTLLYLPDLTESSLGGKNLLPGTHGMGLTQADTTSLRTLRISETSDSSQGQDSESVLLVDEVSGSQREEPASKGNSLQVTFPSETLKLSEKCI
T1 sequence (P35408 whole entry): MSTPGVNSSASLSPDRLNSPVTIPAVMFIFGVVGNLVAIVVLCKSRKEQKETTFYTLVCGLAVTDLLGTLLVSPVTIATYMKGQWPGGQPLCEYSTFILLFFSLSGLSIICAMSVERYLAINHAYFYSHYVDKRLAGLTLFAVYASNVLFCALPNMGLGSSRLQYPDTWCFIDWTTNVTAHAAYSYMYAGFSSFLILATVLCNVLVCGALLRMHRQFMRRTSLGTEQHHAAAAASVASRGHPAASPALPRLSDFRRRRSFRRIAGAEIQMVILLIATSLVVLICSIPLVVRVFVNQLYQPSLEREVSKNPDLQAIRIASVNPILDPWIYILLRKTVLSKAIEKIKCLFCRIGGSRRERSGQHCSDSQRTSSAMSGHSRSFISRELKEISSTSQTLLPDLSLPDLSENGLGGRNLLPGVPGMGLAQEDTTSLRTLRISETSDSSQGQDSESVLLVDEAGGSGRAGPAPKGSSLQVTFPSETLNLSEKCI

O=C(NC[C@H]1CC[C@H](C(=O)O)CC1)c1cc(Cl)cc2ccn(Cc3ccc4ccccc4n3)c12 [Example 53]
IC50 [1]: 0.094 nM | Ki [2]: 1.4 nM

O=C(O)c1ccc(CNC(=O)c2cc(Cl)cc3ccn(Cc4ccc5ccccc5n4)c23)cc1 [Example 57]
IC50 [1]: 0.037 nM | Ki [2]: 0.85 nM

O=C(NC[C@H]1CC[C@H](C(=O)O)CC1)c1cc(C(F)(F)F)cc2ccn(Cc3ccc4ccccc4n3)c12 [Example 124]
IC50 [1]: 0.15 nM | Ki [2]: 1.4 nM
